Measured values reported in patent publication US20110233810A1, “ANTIMICROBIAL PLASTIC COMPOSITIONS AND METHODS FOR PREPARING SAME” (W. M. Barr & Company, priority 2010, published 2011).

Key:
Rat = conditions: cited from earlier work
Rabbit = conditions: cited from earlier work
[1] = heavy gauge vinyl pool liner and film of vinyl baby pants; cited from earlier work
[2] = monomeric form; cited from earlier work
Staphylococcus aureus = assay: Zone of Inhibition testing AATCC-147 (modified), pellets in agar; assay type: cell-based; conditions: text summary of Table VIII
Experimental: A set of AETs run measured Zone of Inhibition, ZOI (AATCC-147) and pellets from runs 1 to 5 were used. Pellets were placed in an agar growth medium that had been streaked with parallel lines of Staphylococcus aureus and incubated for 24 hours at 37° C. The final plates were photographed and measured for length of ZOI in mm.

## c1ccc2c(c1)Oc1ccccc1[As]2O[As]1c2ccccc2Oc2ccccc21 [OBPA, 10,10′-oxybisphenoxarsine]
Rat
  Oral LD50: 37 mg/kg
Rabbit
  Dermal LD50: 121 mg/kg
[1]
  Leaching from plastics: leaches very slowly

## CCCCCCCCCCCCCCCCCC[N+](C)(C)CCC[Si](OC)(OC)OC.[Cl-] [Ref #1, 3-(trimethoxysilyl) propyl-N-octadecyl-N,N-dimethyl ammonium chloride]
[2]
  Vapor pressure: 5.8 × 10^−14 mmHg

## Oc1cc(Cl)ccc1Oc1ccc(Cl)cc1Cl [TRICLOSAN, 2,4,4′-trichloro-2′-hydroxy diphenol ether]
Staphylococcus aureus
  ZOI (in words): significant ZOI
